Assays:
MLL1 = test: Western blot of full-length MLL1 protein levels in cells treated with CKII inhibitors; format: cell-based, human; conditions: 30 hours
Experimental: FIG. 5. CKII inhibitors selectively increase full-length MLL1 protein levels by decreasing the phosphorylation of MLL1 near the cleavage sites. (A) Conservation of the sequences flanking MLL1-CS2, MLL2 and TFIIA cleavage sites and phosphorylated serine and threonine residues after the cleavage sites (highlighted in red). (B) and (C) 293T cells were transfected with vector control (VT), WT, AA or DD reporter constructs of MLL1-p75 or TFIIA. Western blot was performed with anti-Flag antibody for MLL1 (p75: FL, p47: cleaved) or TFIIA (p54: FL, p47: cleaved). (D) and (E) 293T cells were transfected with WT or AA reporter constructs of MLL1-p75 or TFIIA in the presence or absence of HA-taspase1. Western blot was performed with anti-Flag antibody for MLL1 or TFIIA, or anti-HA antibody for taspase1. (F) 293T cells were infected with shRNAs against CKIIα or CKIIα′. Western blot was performed with anti-MLL1C antibody for MLL1 full-length protein levels, and CKIIα or CKIIα′ for knockdown efficiency. (G) 293T cells were treated with DMSO or 10 μM CX-4945 for 30 hours. Cells were harvested and lysed for Western blot against MLL1, MLL2 or TFIIA using β-tubulin as the loading control. (H) and (I) 293T taspase1 KO cells were pre-treated with CX-4945 (3 μM) or TTP22 (10 μM) for 30 hours. Whole cell lysates from the two conditions were incubated with increasing concentrations of his-taspase1 and subject to in vitro taspase1 assay.
FIG. 13. CKII inhibitors increase full-length MLL1 protein levels. (A) Prediction of kinases that phosphorylate MLL1 near the taspase1 cleavage site. (B) Structure of the CKII inhibitors CX-4945, TTP22, DMAT and TTB. (C) Comparison of the IC50 and molecular weight of the four CKII inhibitors. […] Quantification of the band intensities was performed by ImageJ software. (E) and (F) in vitro taspase1 cleavage assay. Taspase1 KO cell lysates were incubated with recombinant his-tagged taspase1 (0, 1, 10, 100 or 1000 ng) and subject to in vitro taspase1 cleavage assay. Cleavage efficiency was shown as the blotting for MLL1 and TFIIA using Hsp90 as the loading control.
Cell culture. […]

JUP and SLC43A2 mRNA = test: mRNA levels of JUP and SLC43A2 genes in SEM cells; format: cell-based, human
Experimental: RNA-seq Analysis. Gene count tables were constructed using HTseq (Anders et al. 2015) with Ensembl gene annotations and used as input for edgeR 3.0.8 (Robinson et al. 2010). Genes with Benjamini-Hochburg adjusted p-values less than 0.01 were considered to be differentially expressed. GO enrichment analysis was evaluated by the MetaScape online software suite (Tripathi et al. 2015).

Compound: O=C(O)c1ccc2c(c1)nc(Nc1cccc(Cl)c1)c1ccncc12 [CX-4945, 5-(3-chlorophenylamino)benzo[c][2,6]naphthyridine-8-carboxylic acid]
- conversion from cleaved MLL1 to full-length MLL1 (MLL1; 293T cells, 10 μM): increased the conversion from cleaved MLL1 to full-length MLL1
- MLL1 full-length protein levels (MLL1; 293T, MCF7 and HCT116 cells, 0-20 μM, Western blot with MLL1C antibody): dose-dependent increase of MLL1 full-length protein levels
- mRNA levels of JUP and SLC43A2 genes (JUP and SLC43A2 mRNA): decrease of mRNA levels

— patent US11071727B2, “Therapeutic targeting of proteolytic cleavage of the mixed lineage leukemia gene product (MLL1) by taspase1 using kinase inhibitors” (Northwestern University, priority 2018, dated 2021)
